The record followed here is patent US12156523B2 (priority 2017, dated 2024).

The test deals with Pyricularia oryzae. The experiment in a line: whole plant or invertebrate. It counts as in vivo. To be noted: soil, read-out: Control value (number of lesions at the second leaf).
Regarding `O=C(Oc1ccccc1Cl)c1cc(F)nc(F)c1` [Example 1-209], the pest or weed control at 10 µg/mL is no less than 80%.
As for `CCOC(=O)COC(=O)c1cc(F)nc(F)c1F` [Example 1-125], the pest or weed control at 10 µg/mL was no less than 80%.
For `O=C(Nc1ccc([N+](=O)[O-])cc1)c1cc(F)nc(F)c1F` [Example 1-67], the pest or weed control at 10 µg/mL is no less than 80%.
`Cc1cccc(C)c1NC(=O)c1cc(F)nc(F)c1F` [Example 1-7]: the pest or weed control at 10 µg/mL is no less than 80%.
With `CC(C)Oc1cccc(N(C)C(=O)c2cc(F)nc(F)c2F)c1` [Example 1-1] the figure was no less than 80%; with `O=C(OC/C=C\COC(=O)c1cc(F)nc(F)c1F)c1cc(F)nc(F)c1F` [Example 1-151], no less than 80%; with `O=C(Nc1cccc(Oc2ccccc2)c1)c1cc(F)nc(F)c1F` [Example 1-47], no less than 80%.
In the case of `O=C(Oc1ccc([N+](=O)[O-])cc1)c1cc(F)nc(F)c1` [Example 1-203], the pest or weed control at 10 µg/mL was no less than 80%.
On to `CC(NC(=O)c1cc(F)nc(F)c1F)c1ccc(Cl)cc1` (stereo not drawn) [Example 1-84], for which the pest or weed control at 10 µg/mL is no less than 80%.
With `N#Cc1ccccc1NC(=O)c1cc(F)nc(F)c1F` [Example 1-35] the figure was no less than 80%; with `COC(=O)c1cc(F)nc(F)c1` [Example 1-189], no less than 80%; with `CC(NC(=O)c1cc(F)nc(F)c1)c1ccc(Cl)cc1` (stereo not drawn) [Example 1-141], no less than 80%.
For the molecule `Fc1cc(C2=NCCO2)c(F)c(F)n1` [Example 4-2], the pest or weed control at 10 µg/mL is no less than 80%.
For the molecule `Cc1ccc(OC(=O)c2cc(F)nc(F)c2F)cc1` [Example 1-111], the pest or weed control at 10 µg/mL is no less than 80%.
Regarding `O=C(OCc1snc(Cl)c1Cl)c1cc(F)nc(F)c1F` [Example 1-104], the pest or weed control at 10 µg/mL was no less than 80%.
The value for `CCc1ccc(OC(=O)c2cc(F)nc(F)c2)cc1` [Example 1-186] was no less than 80%.
Regarding `CCCCCCCCNC(=O)c1cc(F)nc(F)c1F` [Example 1-96], the pest or weed control at 10 µg/mL was no less than 80%.
On to `CCCOC(=O)c1cc(F)nc(F)c1F` [Example 1-123], for which the pest or weed control at 10 µg/mL was no less than 80%.
The value for `CC(C)OC(=O)c1cc(F)nc(F)c1F` [Example 1-118] was no less than 80%; that for `CCCCCCc1ccc(NC(=O)c2cc(F)nc(F)c2)cc1` [Example 1-181] was no less than 80%.
Regarding `O=C(Nc1cccnn1)c1cc(F)nc(F)c1F` [Example 1-48], the pest or weed control at 10 µg/mL was no less than 80%.
`O=C(Nc1ccccc1)c1ccnc(C(F)(F)F)c1` [Example 1-146]: the pest or weed control at 10 µg/mL is no less than 80%.
Regarding `COc1ccc(NC(=O)c2cc(F)nc(F)c2F)cc1OC` [Example 1-22], the pest or weed control at 10 µg/mL was no less than 80%.
With `Fc1cc(C2=NCCCO2)c(F)c(F)n1` [Example 4-3] the figure was no less than 80%.
For `O=C(Nc1ccc(Cl)c(Cl)c1)c1cc(F)nc(F)c1` [Example 1-155], the pest or weed control at 10 µg/mL is no less than 80%.
For `O=C(NCCBr)c1cc(F)nc(F)c1F` [Example 1-87], the pest or weed control at 10 µg/mL is no less than 80%.
Consider `Cc1cc(C)cc(NC(=O)c2cc(F)nc(F)c2F)c1` [Example 1-26], for which the pest or weed control at 10 µg/mL was no less than 80%.
For `Cc1ccc(NC(=O)c2cc(F)nc(F)c2F)cc1C(F)(F)F` [Example 1-65], the pest or weed control at 10 µg/mL is no less than 80%.
For the molecule `CCOC(=O)c1cc(F)nc(F)c1` [Example 1-185], the pest or weed control at 10 µg/mL is no less than 80%.
The value for `O=C(Nc1ccccn1)c1cc(F)nc(F)c1F` [Example 1-16] was no less than 80%; that for `O=C(OCC(F)(F)F)c1cc(F)nc(F)c1F` [Example 1-120] was no less than 80%.
As for `CCOc1ccc(NC(=O)c2cc(F)nc(F)c2F)cc1` [Example 1-57], the pest or weed control at 10 µg/mL is no less than 80%.
For `CCCCCCCCOC(=O)c1cc(F)nc(F)c1F` [Example 1-127], the pest or weed control at 10 µg/mL was no less than 80%.
As to `O=C(Nc1nc[nH]n1)c1cc(F)nc(F)c1F` [Example 1-51], the pest or weed control at 10 µg/mL was no less than 80%.
In the case of `COc1cc(NC(=O)c2cc(F)nc(F)c2F)cc(OC)c1` [Example 1-25], the pest or weed control at 10 µg/mL was no less than 80%.
With `O=C(Nc1ncccn1)c1cc(F)nc(F)c1F` [Example 1-17], the pest or weed control at 10 µg/mL is no less than 80%.
The value for `COc1ccc(NC(=O)c2cc(F)nc(F)c2F)cc1` [Example 1-61] was no less than 80%; that for `O=C1c2ccccc2S(=O)(=O)N1C(=O)c1cc(F)nc(F)c1F` [Example 2-5] was no less than 80%.
Regarding `Cc1ccccc1NC(=O)c1cc(F)nc(F)c1F` [Example 1-14], the pest or weed control at 10 µg/mL is no less than 80%.
Regarding `CCCOC(=O)c1cc(F)nc(F)c1` [Example 1-184], the pest or weed control at 10 µg/mL is no less than 80%.
As to `COc1ccc(COC(=O)c2cc(F)nc(F)c2F)cc1` [Example 1-109], the pest or weed control at 10 µg/mL is no less than 80%.
Consider `O=C(OC1CCCCC1)c1cc(F)nc(F)c1` [Example 1-205], for which the pest or weed control at 10 µg/mL was no less than 80%.
Take `Cc1cccc(OC(=O)c2cc(F)nc(F)c2)c1` [Example 1-206]: the pest or weed control at 10 µg/mL is no less than 80%.
In the case of `CC(C)(C)Oc1cccc(NC(=O)c2cc(F)nc(F)c2F)c1` [Example 1-50], the pest or weed control at 10 µg/mL was no less than 80%.
As for `CC(C)(C)c1ccc(NC(=O)c2cc(F)nc(F)c2F)cc1` [Example 1-71], the pest or weed control at 10 µg/mL is no less than 80%.
Consider `Cc1cccc(NC(=O)c2cc(F)nc(F)c2F)c1` [Example 1-46], for which the pest or weed control at 10 µg/mL is no less than 80%.
The value for `Cc1ccc(COC(=O)c2cc(F)nc(F)c2F)cc1` [Example 1-110] was no less than 80%; that for `O=C(NCCO)c1cc(F)nc(F)c1F` [Example 1-78] was no less than 80%.
With `O=C(Nc1ccc(F)cc1)c1cc(F)nc(F)c1` [Example 1-201] the figure was no less than 80%; with `O=C(c1cc(F)nc(F)c1F)N1CCc2ccccc21` [Example 2-4], no less than 80%; with `C=CCOC(=O)c1cc(F)nc(F)c1` [Example 1-188], no less than 80%.
With `O=C(Nc1ccc2c(c1)OCCO2)c1cc(F)nc(F)c1F` [Example 1-9] the figure was no less than 80%; with `O=C(OCc1ccccc1)c1cc(F)nc(F)c1F` [Example 1-114], no less than 80%; with `O=C(Nc1ccc(Cl)cc1)c1cc(F)nc(F)c1` [Example 1-153], no less than 80%.
Turning to `O=C(NCCS)c1cc(F)nc(F)c1F` [Example 1-79], the pest or weed control at 10 µg/mL was no less than 80%.
Regarding `COc1cc(NC(=O)c2cc(F)nc(F)c2F)cc(OC)c1OC` [Example 1-20], the pest or weed control at 10 µg/mL is no less than 80%.
Consider `CCCNC(=O)c1cc(F)nc(F)c1F` [Example 1-88], for which the pest or weed control at 10 µg/mL is no less than 80%.
Take `CCOC(=O)c1ccc(NC(=O)c2cc(F)nc(F)c2F)cc1` [Example 1-56]: the pest or weed control at 10 µg/mL is no less than 80%.
Regarding `N#CCNC(=O)c1cc(F)nc(F)c1F` [Example 1-91], the pest or weed control at 10 µg/mL was no less than 80%.
For `O=C(Nc1ccc(Oc2ccccc2)cc1)c1cc(F)nc(F)c1F` [Example 1-68], the pest or weed control at 10 µg/mL was no less than 80%.
Consider `CCOC(=O)c1cc(F)nc(F)c1F` [Example 1-117], for which the pest or weed control at 10 µg/mL is no less than 80%.
With `Cc1ccc(NC(=O)c2cc(F)nc(F)c2F)cc1F` [Example 1-39], the pest or weed control at 10 µg/mL is no less than 80%.
As for `O=C(Sc1ccccc1)c1cc(F)nc(F)c1F` [Example 1-130], the pest or weed control at 10 µg/mL is no less than 80%.
The value for `O=C(OCC=C(Cl)Cl)c1cc(F)nc(F)c1F` [Example 1-122] was no less than 80%; that for `COc1cc(NC(=O)c2cc(F)nc(F)c2F)ccc1C` [Example 1-63] was no less than 80%; that for `Cc1ccc(NC(=O)c2cc(F)nc(F)c2F)cc1I` [Example 1-40] was no less than 80%.
For the molecule `Cc1cc(NC(=O)c2cc(F)nc(F)c2F)no1` [Example 1-73], the pest or weed control at 10 µg/mL is no less than 80%.
The value for `Cc1ccccc1OC(=O)c1cc(F)nc(F)c1` [Example 1-208] was no less than 80%; that for `O=C(Oc1cccc(F)c1)c1cc(F)nc(F)c1` [Example 1-207] was no less than 80%; that for `O=C(Nc1nc2ccccc2s1)c1cc(F)nc(F)c1` [Example 1-194] was no less than 80%.
As to `Cc1ccc(NC(=O)c2cc(F)nc(F)c2F)cc1` [Example 1-66], the pest or weed control at 10 µg/mL was no less than 80%.
Turning to `O=C(NCc1ccccc1)c1cc(F)nc(F)c1` [Example 1-140], the pest or weed control at 10 µg/mL is no less than 80%.
As to `Cc1ccc(NC(=O)c2cc(F)nc(F)c2F)cc1Br` [Example 1-28], the pest or weed control at 10 µg/mL is no less than 80%.
For the molecule `O=C(Nc1cccc(OC(F)(F)F)c1)c1cc(F)nc(F)c1F` [Example 1-52], the pest or weed control at 10 µg/mL was no less than 80%.
On to `C#CCOC(=O)c1cc(F)nc(F)c1` [Example 1-182], for which the pest or weed control at 10 µg/mL was no less than 80%.
On to `O=C(Nc1ccc(Cl)cc1)c1cc(F)nc(F)c1F` [Example 1-54], for which the pest or weed control at 10 µg/mL was no less than 80%.
With `O=C(Nc1ccc(F)c(F)c1)c1cc(F)nc(F)c1F` [Example 1-21] the figure was no less than 80%.
Consider `O=C(Oc1ccc(Cl)cc1)c1cc(F)nc(F)c1F` [Example 1-107], for which the pest or weed control at 10 µg/mL was no less than 80%.
With `O=C(NC(CO)c1ccccc1)c1cc(F)nc(F)c1F` (stereo not drawn) [Example 1-81] the figure was no less than 80%; with `CC(OC(=O)c1cc(F)nc(F)c1F)C(F)(F)F` (stereo not drawn) [Example 1-115], no less than 80%; with `O=C(NCc1ccccc1)c1cc(NC(=O)c2cc(F)nc(F)c2F)ccc1Cl` [Example 1-99], no less than 80%.
The value for `O=C(Nc1c(F)c(F)c(C(F)(F)F)c(F)c1F)c1cc(F)nc(F)c1F` [Example 1-4] was no less than 80%.
Regarding `O=C(Nc1cnccn1)c1cc(F)nc(F)c1F` [Example 1-15], the pest or weed control at 10 µg/mL is no less than 80%.
On to `COc1ccc(NC(=O)c2cc(F)nc(F)c2)cc1` [Example 1-200], for which the pest or weed control at 10 µg/mL was no less than 80%.
